Measured values: patent publication US8865894B2, “Oxazolidin-2-one compounds and uses thereof” (Novartis AG, priority 2012, dated 2014)
Read-outs that look alike come from different tables or passages of the source.

What was measured:
[1] = biological target: PI3Kgamma (Homo sapiens, UniProt P48736); test: Biochemical PI3Kgamma (TR-FRET Adapta Universal Kinase Assay); details: mean of n measurements, read-out: PIK3g/ IC50
Experimental: Test compounds were dissolved in DMSO (10 mM) and transferred into 1.4 mL flat bottom or V-shaped Matrix tubes carrying a unique 2D matrix chip by individual Novartis compound hubs. The numbers of these chips were distinctively linked to Novartis Pharma Numbers. The stock solutions were stored at −20° C. if not used immediately. For the test procedure the vials were defrosted and identified by a scanner whereby a working sheet was generated that guided the subsequent working steps.
Compounds were either manually diluted in DMSO for individual experiments (96 wells enabling 10 cpds at 8 (single points) concentrations) as described in or prepared as described below if tested for profiling in 384-wells. This format enabled the assay of maximally 40 individual test compounds at 8 concentrations (single points) including 4 reference compounds. The dilution protocol included the production of “pre-dilution plates”, “master plates” and “assay plates”.
96 polypropylene well plates were used as pre-dilution plates. A total of 4 pre-dilution plates were prepared including 10 test compounds each on the plate positions A1-A10, one standard compound at A11 and one DMSO control at A12. Programs have been written to run these pipetting steps on the HamiltonSTAR robots.
100 μL of individual compound dilutions including standard compound and controls of the 4 “pre-dilution plates” were transferred into a 384 “master plate” including the following concentrations 1,820, 564, 182, 54.6, 18.2, 5.46, 1.82 and 0.546 μM, respectively in 90% DMSO.
Identical “assay plates” were then prepared by pipetting 50 nL each of compound dilutions of the “master plates” into 384-well “assay plates”. The compounds were mixed with 4.5 μL of assays components plus 4.5 μL enzyme corresponding to a 1:181 dilution enabling the final concentration of 10, 3.0, 1.0, 0.3, 0.1, 0.03, 0.01 and 0.003 μM, respectively. The preparation of the “master plates” was handled by the Matrix PlateMate Plus robot and replication of “assay plates” by the HummingBird robot.
The TR-FRET Adapta™ Universal Kinase Assay Kit was purchased from Invitrogen Corporation (Carlsbad/CA, USA) (Cat. No. PV5099). The kit contains the following reagents: Adapta Eu-anti-ADP Antibody (Europium labeled anti-ADP antibody in HEPES buffered saline, Cat. No. PV5097), Alexa Fluor® 647-labeled ADP tracer (Alexa Fluor® 647-labeled ADP tracer in HEPES buffered saline, Cat. No. PV5098), proprietary TR-FRET dilution buffer pH 7.5 (Cat. No. PV3574).
PIK3CD substrate Phosphatidylinositol was obtained from Invitrogen (vesicules consisting of 2 mM PI in 50 mM HEPES pH7.5; Cat. No. PV5371). PIK3CG substrate Phosphatidylinositol-4,5-bisphosphate (PIP(4,5)2 was obtained from Invitrogen (PIP2:PS large unilamellar vesicules consisting of 1 mM PIP2: 19 mM PS in 50 mM HEPES pH7.5, 3 mM MgCl2, 1 mM EGTA; Cat. No. PV5100).
Time-Resolved Fluorescence Resonance Energy Transfer (TR-FRET) is a technology based on energy transfer between two adjacent dyes, from an excited electron in one dye (the donor) to an electron of an adjacent dye (the acceptor) through resonance, then released as a photon. This energy transfer is detected by an increase in the fluorescence emission of the acceptor, and a decrease in the fluorescence emission of the donor. TR-FRET assays for protein kinases use a long-lifetime lanthanide Terbium or Europium chelates as the donor species which overcome interference from compound autofluorescence or light scatter from precipitated compounds, by introducing a delay after excitation by a flashlamp excitation source. Results are often expressed as a ratio of the intensities of the acceptor and donor fluorophores. The ratiometric nature of such a value corrects for differences in assay volumes between wells, as well as corrects for quenching effects due to colored compounds. The Adapta™ assay can be divided into two phases: a kinase reaction phase and an ADP detection phase. […]

[2] = biological target: T1, mTOR (Mus musculus, UniProt Q9JLN9); test: Cellular assay mTOR (phospho-T389 S6K1 SureFire in TSC1-/- MEF cells); type: cell-based
T1 construct: endogenous in cells; host or cells: TSC1-/- MEF (mouse embryo fibroblasts)
Description: A cell based assay (384-well format) was developed for determination of compound effects on cellular mTOR kinase activity in MEF (mouse embryo fibroblasts) cells derived from mice lacking TSC1 (Tuberosclerosis Complex1) a potent suppressor of mTOR kinase activity. Due to lack of TSC1 the mTOR kinase is constitutively activated resulting in permanent phosphorylation of Thr 389 of S6 kinase 1 (S6K1) which is one of the downstream targets of mTOR.
Using a SureFire Kit that enables to determine the phosphorylation of Thr389 on the S6K1 an assay was developed, validated and implemented in the Alpha-Screen format that allows the quantitative determination of phospho-T389 of S6K1 in cell lysates. […] These were in agreement with those values obtained with the biochemical mTOR ATP-binding assay enabling a quantitative comparison of potency of mTOR inhibitors.
TSC1−/− MEFs cells (Kwiatkowski, D. J., Zhang, H., Bandura, J. L., Heiberger, K. M., Glogauer, M., el-Hashemite, N., and Onda, H. (2002) Hum. Mol. Genet. 11, 525-534) were cultured in DMEM high glucose medium supplemented with 10% FBS (Invitrogen), 2 mM Glutamine and 1% (w/v) Penicillin/Streptomycin at 37° C., 5% CO2.
The SureFire kit for determination of P70S6kinase phosphorylation was purchased from Perkin Elmer (p70S6K p-T389, #TGR70S50K) and the assay was performed according to the instructions of the supplier and according to the generic method for SureFire assays. Shortly, 5 μL cell lysate per well were transferred to 384-well white proxy-plates (for luminescent readout) and mixed with […] and […] (final volume: 12 μL). After 3 h incubation in the dark at RT luminescence was read with the Envision Reader (Perkin Elmer). Untreated cells were used as control (high control) and cells treated with 3 μM BEZ235 were used as low control. The assay window between the signals obtained for the high and the low controls were defined as 100% and compound effects were expressed as percent inhibition. IC50 values were calculated from the dose response curves by graphical extrapolation.

[3] = TSC1-/- MEF cells, read-out: mTOR S6K(T389)_TSC1ko/ IC50

Chain of PI3Kgamma (P48736 whole entry, species assumed): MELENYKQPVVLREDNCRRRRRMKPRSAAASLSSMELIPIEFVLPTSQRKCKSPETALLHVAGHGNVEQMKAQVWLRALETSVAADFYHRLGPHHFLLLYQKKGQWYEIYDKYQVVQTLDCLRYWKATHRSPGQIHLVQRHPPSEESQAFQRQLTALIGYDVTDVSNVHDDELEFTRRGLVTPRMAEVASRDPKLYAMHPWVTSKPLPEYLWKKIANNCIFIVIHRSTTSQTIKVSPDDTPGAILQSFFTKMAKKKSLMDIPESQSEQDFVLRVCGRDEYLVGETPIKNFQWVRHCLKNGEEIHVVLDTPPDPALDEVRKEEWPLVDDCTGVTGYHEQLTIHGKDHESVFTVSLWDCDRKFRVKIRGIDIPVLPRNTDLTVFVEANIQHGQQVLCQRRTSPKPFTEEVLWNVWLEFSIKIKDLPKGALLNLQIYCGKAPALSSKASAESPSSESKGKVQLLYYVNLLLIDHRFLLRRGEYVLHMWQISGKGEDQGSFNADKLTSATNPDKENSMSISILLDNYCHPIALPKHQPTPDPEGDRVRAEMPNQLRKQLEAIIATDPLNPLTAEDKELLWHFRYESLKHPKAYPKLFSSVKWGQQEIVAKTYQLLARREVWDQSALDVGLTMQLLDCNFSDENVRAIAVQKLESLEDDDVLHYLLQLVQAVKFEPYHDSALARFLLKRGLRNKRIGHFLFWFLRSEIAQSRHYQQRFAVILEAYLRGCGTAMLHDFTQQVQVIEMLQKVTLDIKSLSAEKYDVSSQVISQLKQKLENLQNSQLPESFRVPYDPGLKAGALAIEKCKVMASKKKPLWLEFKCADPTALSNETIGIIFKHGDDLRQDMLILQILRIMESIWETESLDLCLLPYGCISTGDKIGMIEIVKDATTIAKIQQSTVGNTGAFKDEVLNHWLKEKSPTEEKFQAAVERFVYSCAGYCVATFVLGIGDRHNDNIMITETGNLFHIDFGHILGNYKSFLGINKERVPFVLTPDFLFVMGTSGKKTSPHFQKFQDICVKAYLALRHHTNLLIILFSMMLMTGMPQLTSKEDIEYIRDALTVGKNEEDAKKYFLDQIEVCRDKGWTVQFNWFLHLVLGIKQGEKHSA

| SMILES | melting point | IC50 [1] | IC50 [2, 3] | IC50 ([2]; second value / 3 of the 4 values / 3 of the 5 values as per footnote, read-out: mTOR S6K(T389)_TSC1ko IC50, further individual values (footnotes)) |
| --- | --- | --- | --- | --- |
| C[C@H]1CN(c2cc(-c3cnc(N)nc3C(F)(F)F)nc(N3CCOCC3)n2)C(=O)O1 [Example 16, (S)-3-(2′-Amino-2-morpholin-4-yl-4′-trifluoromethyl-[4,5′]bipyrimidinyl-6-yl)-5-methyl-oxazolidin-2-one] | – | 770 nM | 942 nM | – |
| [2H]C1([2H])OC([2H])([2H])C([2H])([2H])N(c2nc(-c3cnc(N)nc3C(F)(F)F)cc(N3C(=O)OC[C@@H]3C)n2)C1([2H])[2H] [Example 17, (S)-3-(2′-amino-2-D8-morpholino-4′-(trifluoromethyl)-[4,5′-bipyrimidin]-6-yl)-4-methyloxazolidin-2-one] | – | 328 nM | 867 nM | – |
| Nc1ncc(-c2cc(N3C[C@H](CO)OC3=O)nc(N3CCOCC3)n2)c(C(F)(F)F)n1 [Example 20, (R)-3-(2′-Amino-2-morpholin-4-yl-4′-trifluoromethyl-[4,5′]bipyrimidinyl-6-yl)-5-hydroxymethyl-oxazolidin-2-one] | – | 601 nM | > 2270 nM | – |
| Nc1ncc(-c2cc(N3C(=O)O[C@H]4COC[C@H]43)nc(N3CCOCC3)n2)c(C(F)(F)F)n1 [Example 21, (3aR,6aR)-3-(2′-amino-2-morpholino-4′-(trifluoromethyl)-[4,5′-bipyrimidin]-6-yl)-tetrahydrofuro[3,4-d]oxazol-2(3H)-one] | – | 370 nM | 942 nM | – |

These reach a lower IC50 [1]. Values come first.

| melting point | IC50 [1] | IC50 [2, 3] | IC50 ([2]; second value / 3 of the 4 values / 3 of the 5 values as per footnote, read-out: mTOR S6K(T389)_TSC1ko IC50, further individual values (footnotes)) | SMILES |
| --- | --- | --- | --- | --- |
| – | 253 nM | 794 nM | – | C[C@H]1OC(=O)N(c2cc(-c3cnc(N)nc3C(F)(F)F)nc(N3CCOCC3)n2)[C@H]1CO [Example 18, (4S,5R)-3-(2′-Amino-2-morpholin-4-yl-4′-trifluoromethyl-[4,5′]bipyrimidinyl-6-yl)-4-hydroxymethyl-5-methyl-oxazolidin-2-one] |
| – | 207 nM | 1110 nM | – | C[C@H]1[C@@H](CCO)OC(=O)N1c1cc(-c2cnc(N)nc2C(F)(F)F)nc(N2CCOCC2)n1 [Example 23, (4S,5R)-3-(2′-Amino-2-morpholino-4′-(trifluoromethyl)-[4,5′-bipyrimidin]-6-yl)-5-(2-hydroxyethyl)-4-methyloxazolidin-2-one] |
| – | 184 nM | 423 nM | – | C[C@H]1[C@@H](CO)OC(=O)N1c1cc(-c2cnc(N)nc2C(F)(F)F)nc(N2CCOCC2)n1 [Example 19, (4S,5S)-3-(2′-Amino-2-morpholin-4-yl-4′-trifluoromethyl-[4,5′]bipyrimidinyl-6-yl)-5-hydroxymethyl-4-methyl-oxazolidin-2-one] |
| 217.7 °C | 158 nM | 2020 nM | > 2270 nM | C[C@H]1OC(=O)N(c2cc(-c3cnc(N)nc3C(F)(F)F)nc(N3CCOC[C@@H]3C)n2)[C@H]1CO [Example 10, (4S,5R)-3-[2′-Amino-2-((S)-3-methyl-morpholin-4-yl)-4′-trifluoromethyl-[4,5′]bipyrimidinyl-6-yl]-4-hydroxymethyl-5-methyl-oxazolidin-2-one] |
